Values of other authors in EP4813985A1, “PREPARATION OF QUINAZOLINONE DERIVATIVE AS KINASE INHIBITOR, AND USE THEREOF” (Xizang Haisco Pharmaceutical Co., Ltd., priority 2023, dated 2025).

What was measured:
[1] = reported in the background; cited from earlier work
[2] = biological target: MDR1 (Homo sapiens, UniProt P08183); conditions: reported in the background; cited from earlier work
[3] = biological target: T1, BCRP (Homo sapiens, UniProt Q9UNQ0); conditions: reported in the background; cited from earlier work
T1 sequence (Q9UNQ0 1-655): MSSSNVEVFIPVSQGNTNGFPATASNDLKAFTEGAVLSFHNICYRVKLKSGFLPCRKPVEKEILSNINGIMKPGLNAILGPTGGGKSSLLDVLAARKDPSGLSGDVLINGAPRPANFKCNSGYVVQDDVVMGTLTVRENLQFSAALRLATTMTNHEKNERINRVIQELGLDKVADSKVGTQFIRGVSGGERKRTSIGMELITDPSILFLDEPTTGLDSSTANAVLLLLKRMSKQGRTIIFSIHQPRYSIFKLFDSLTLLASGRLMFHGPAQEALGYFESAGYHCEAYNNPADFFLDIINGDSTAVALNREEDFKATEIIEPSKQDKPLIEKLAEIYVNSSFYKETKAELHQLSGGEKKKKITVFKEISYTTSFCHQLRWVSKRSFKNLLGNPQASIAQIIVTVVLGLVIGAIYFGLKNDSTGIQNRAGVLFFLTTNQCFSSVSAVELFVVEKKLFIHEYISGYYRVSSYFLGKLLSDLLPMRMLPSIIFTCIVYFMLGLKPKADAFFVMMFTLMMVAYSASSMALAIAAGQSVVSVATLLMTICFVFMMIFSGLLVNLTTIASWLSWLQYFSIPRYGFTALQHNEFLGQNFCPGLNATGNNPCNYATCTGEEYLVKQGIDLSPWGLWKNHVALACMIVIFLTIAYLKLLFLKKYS

Sequence of MDR1 (P08183 whole entry, species assumed): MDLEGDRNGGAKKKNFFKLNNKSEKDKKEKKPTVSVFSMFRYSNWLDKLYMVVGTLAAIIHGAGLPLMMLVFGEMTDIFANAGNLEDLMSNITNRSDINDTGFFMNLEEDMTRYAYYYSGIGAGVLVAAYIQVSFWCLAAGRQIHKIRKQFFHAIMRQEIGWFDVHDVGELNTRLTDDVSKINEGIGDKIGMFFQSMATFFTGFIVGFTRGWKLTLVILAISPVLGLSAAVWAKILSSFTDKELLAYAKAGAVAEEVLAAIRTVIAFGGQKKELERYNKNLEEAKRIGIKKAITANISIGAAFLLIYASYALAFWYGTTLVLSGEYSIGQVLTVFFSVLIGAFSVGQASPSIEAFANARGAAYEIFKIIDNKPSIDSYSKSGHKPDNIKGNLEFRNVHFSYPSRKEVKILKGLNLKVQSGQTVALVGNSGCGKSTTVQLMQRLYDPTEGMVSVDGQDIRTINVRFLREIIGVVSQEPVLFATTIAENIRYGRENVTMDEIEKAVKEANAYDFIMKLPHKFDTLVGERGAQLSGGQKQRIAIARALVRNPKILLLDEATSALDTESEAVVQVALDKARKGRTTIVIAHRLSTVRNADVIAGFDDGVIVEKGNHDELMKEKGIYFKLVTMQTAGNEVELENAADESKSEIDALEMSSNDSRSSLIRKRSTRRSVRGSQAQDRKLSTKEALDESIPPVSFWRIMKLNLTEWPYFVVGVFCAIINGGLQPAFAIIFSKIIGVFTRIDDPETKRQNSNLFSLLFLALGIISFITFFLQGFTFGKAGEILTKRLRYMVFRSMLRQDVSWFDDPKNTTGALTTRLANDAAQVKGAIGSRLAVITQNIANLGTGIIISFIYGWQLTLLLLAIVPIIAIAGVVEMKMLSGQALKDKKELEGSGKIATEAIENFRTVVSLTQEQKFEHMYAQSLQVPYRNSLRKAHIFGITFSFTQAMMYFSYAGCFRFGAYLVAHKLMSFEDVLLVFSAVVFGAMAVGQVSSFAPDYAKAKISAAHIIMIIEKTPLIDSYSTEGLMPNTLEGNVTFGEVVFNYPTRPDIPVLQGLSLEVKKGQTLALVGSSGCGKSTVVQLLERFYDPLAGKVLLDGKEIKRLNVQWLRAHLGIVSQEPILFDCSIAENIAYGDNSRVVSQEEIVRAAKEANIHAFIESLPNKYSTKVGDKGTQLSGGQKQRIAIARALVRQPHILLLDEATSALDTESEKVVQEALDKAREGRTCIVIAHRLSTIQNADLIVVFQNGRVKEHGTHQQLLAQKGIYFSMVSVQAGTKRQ

CC(C)(C)c1nc(-c2cccc(NS(=O)(=O)c3c(F)cccc3F)c2F)c(-c2ccnc(N)n2)s1 [dabrafenib]
total brain-to-plasma ratio [1]: 0.023
MDR1 efflux ratio [2]: 11.4
BCRP efflux ratio [3]: 21.0
